Columns and labels:
[1] = test system: primary human cardiac fibroblasts (HCFs); experiment: Proliferation of primary human cardiac fibroblasts, BrdU-ELISA; type: cell-based; conditions: 24 h; for proliferation of HCFs (derivative screen): 10 μM, DMSO solvent control; for proliferation of primary HCFs: 0.1, 1, 10 μM (Lycorine 1, 5, 10 μM), DMSO control
Protocol: HCFs were incubated with 0.1 μM, 1 μM and 10 μM Bufalin, Gitoxigenin, Anisomycin and Geldanamycin as well as with 1 μM, 5 μM and 10 μM Lycorine for 24 h and proliferation of HCFs was measured by BrdU-ELISA (see FIG. 1). Due to major drawbacks as a drug candidate, Geldanamycin was not included in the follow-up studies, in particular in the in vivo experiments.
(§1) HCFs and HL-1 cells were treated with Bufalin, Gitoxigenin, Lycorine and Anisomycin for 24 h with the same concentrations as indicated in Example 1 and proliferation of HCFs and cardiomyocyte cell line HL-1 cells was measured by BrdU-ELISA, DMSO refers as a control (see FIG. 2B, 3B, 4B, 5B). The cell proliferation ELISA is a colorimetric alternative to quantitate cell proliferation based on the measurement of BrdU incorporation during DNA synthesis in proliferating cells. After its incorporation into DNA, BrdU is detected by immunoassay by using antibodies being highly specific for BrdU. First, HCFs and/or HL-1 cells are cultured together with various dilutions of test substances (e.g. mitogens, growth factors, cytokines and test compounds such as Bufalin, Gitoxigenin, Lycorine and Anisomycin as mentioned above etc.) in a 96-well in a final volume of 100 μl/well in a humified atmosphere of 37° C. Afterwards, 10 μl/well BrdU labeling solution is added to the cells being cultured in 100 μl/well (final concentration: 10 μM BrdU). Then, cells were re-incubated for additional 2 to 24 h at 37° C. Next, labeling solution is removed and 200 μl/well FixDenat is added to the cells and incubated for 30 min at 15 to 25° C. Then, 100 μl/well anti-BrdU-POD working solution is added and incubated for approximately 90 min, after FixDenat is removed. Next, antibody conjugate is removed and wells are washed with 200 μl-300 μl/well Washing solution (PBS, 1×). After the washing solution is removed, 100 μl/well Substrate solution is added and it is incubated again until color development is sufficient for photometric detection. Further, HCFs were treated with said compounds (Lycorine: 5 μM, Bufalin: 1 μM, Gitoxigenin: 1 μM and Anisomycin: 1 μM) for 24 h as indicated again and subjected to FACS analysis after Annexin-7AAD-staining (see FIG. 2C, 3C, 4C, 5C). After the treatment with said compounds, annexin-7AAD-staining starts with inducing apoptosis in HCFs by a desired method, known to the person skilled in the art, a negative control (w/o induction and staining) and a positive control (f. ex. 500 μM H2O2 or 3 μM Staurosporin) is also needed. Then, the medium with HCFs is transferred into a falcon, washed with PBS and trypsinized. Everything is centrifuged for 5 min at 300×g and then the supernatant is aspirated. The pellet is re-suspended in 200 μl Annexin Red/7AAD Working Solution (1:20, 5 μl Annexin Red/7AAD+195 μl 1× Assay Buffer) and transferred into an Easy Cap Eppendorf tube. After incubation of 15 min at 37° C., it is centrifuged at room temperature (RT) for 5 min at 300×g. Then, the supernatant is aspirated, the pellet washed once with 200 μl 1× Assay Buffer and centrifuged again at RT for 5 min at 300×g. Again, the supernatant is aspirated and the pellet is re-suspended in 200 μl Annexin Red/7AAD working solution and incubated again at RT for 5 min in the dark. Samples are now ready for acquisition on a flow cytometer (blue and red laser).
The cells were incubated for 24 h with 10 μM Bufalin and Lycorine and with 10 μM derivatives of Bufalin (derivatives 3, 5, 6, 7, 8, 9, 10, 11, 12, 13, 14, 16, 17, 18 and 25) and Lycorine (derivative 1, 2, 4, 15, 19, 20, 21, 22, 23, 24 and 26). Then, proliferation of HCFs was measured by BrdU-ELISA (see FIG. 31).

[2] = test system: cardiomyocyte cell line HL-1; experiment: Proliferation of cardiomyocyte cell line HL-1, BrdU-ELISA; type: cell-based; conditions: same concentrations as on HCFs, 24 h, DMSO control
Protocol: as §1, with “Then, the supernatant is aspirated, the pellet washed once with 200 μl 1× Assay Buffer and centrifuged again at RT for 5 min at 300×g. Again, the supernatant is aspirated and the pellet is re-suspended in 200 μl Annexin Red/7AAD working solution and incubated again at RT for 5 min in the dark.” left out

primary HCFs = experiment: Cell death in HCFs, FACS after Annexin-7AAD-staining; type: cell-based, human; conditions: Lycorine 5 μM, Bufalin, Gitoxigenin, Anisomycin 1 μM, 24 h
Protocol: as §1, with “Then, the supernatant is aspirated, the pellet washed once with 200 μl 1× Assay Buffer and centrifuged again at RT for 5 min at 300×g. Again, the supernatant is aspirated and the pellet is re-suspended in 200 μl Annexin Red/7AAD working solution and incubated again at RT for 5 min in the dark.” left out

[3] = test system: C57BL/6 mice with angiotensin II-induced diastolic heart failure; experiment: Echocardiography in murine model of angiotensin II-induced cardiac fibrotic disease (two weeks); type: in vivo; conditions: i.p. every other day, Bufalin 0.5, Lycorine 4.5, Anisomycin 10, Gitoxigenin 0.01 mg/kg, day 14
Protocol: Diastolic heart failure (HF) was induced in C57BL/6 mice via implantation of angiotensin II filled minipumps. Male C57BL/6 mice 8-10 weeks old were used in the present invention being based on a C57BL/6N-background (Charles River, Germany).
For implantation of angiotension II filled minipumps, Angiotensin-II is applied by osmotic minipumps for two weeks (Alzet® [Modell 1001]). The recommended dose amounts for 1.5 or 3.0 mg/kg/per day. The minipumps are filled under sterile conditions with Angiotensin-II or with isotonic saline solution functioning as a control substance. Implantation takes place under intraperitoneal injection anaesthesia. […] Mice are then fixed on a pre-heated operating table and are provided with Bepanthen eye salve against drying out of the conjunctives. The operating field is located in the right caudal third of the back. It is shaved and desinfected with Braunol, afterwards it is coated with a 0.5% Lidocain-solution. After a period of one hour implantation can be started. The skin is cut through vertical to the back line, preferably the length is one centimeter. A pocket from the cutting line to cranial is subcutaneously formed. Herein, the minipumps are injected. Afterwards, the skin is then closed with a 5-0 Prolene string with interrupted sutures. Then, the closed wound is coated again with Braunol. For preventing hypothermia mice wake up in their cages, which are placed up to one-third on a terrarium-warming mat with regulated temperatures of 37°. Surgery amounts for 5 minutes/per animal.
Next, the natural compounds (Bufalin, Gitoxigenin, Lycorine, and Anisomycin) were injected intraperitoneally every other day during two consecutive weeks starting two days after the operation (see FIG. 6). DMSO was also injected into C57BL/6 mice with induced cardiac remodeling as a control. Cardiac function was assessed echocardiographically and fibrosis-development via collagen staining with picosirius-red in histological sections of the hearts (Example 4).
Diastolic HF was induced in C57BL/6 mice and the natural compounds were injected as indicated in Example 3. Fourteen days after the operation, cardiac function of the mice was assessed echocardiographically (n=9-15 per group) by treating the mice with said compounds (Bufalin: 0.5 mg/kg, Lycorine 4.5 mg/kg, Anisomycin: 10 mg/kg and Gitoxigenin: 0.01 mg/kg). A decrease of the Myocardial Performance Index (MPI) as well as a reduction of the isovolumetric relaxation time (IVRT) and an increase in E to A peak ratio (E/A) (the ratio of the early (E) to late (A) ventricular filling velocities as a marker of the function of the left ventricle of the heart) indicate improvement of both global (MPI) and diastolic (IVRT and E/A) function of the heart (see FIGS. 7 and 9).

Compound: O[C@H]1[C@H]2c3cc4c(cc3CN3CCC(=C[C@@H]1O)[C@H]23)OCO4 [Lycorine]
- proliferation of HCFs (derivative screen) [1]: proliferation is prevented
- proliferation of primary HCFs [1]: Dose-dependent inhibitory effects
- proliferation of the cardiomyocyte cell line HL-1 [2]: no impact
- cell death in primary HCFs (Annexin-7AAD-staining) (primary HCFs): does not induce cell death
- E to A peak ratio (E/A) [3]: increase
- Myocardial Performance Index (MPI) [3]: decrease
- isovolumetric relaxation time (IVRT) [3]: reduction

Compound: COc1ccc(C[C@H]2NC[C@H](O)[C@H]2OC(C)=O)cc1 [Anisomycin]
- proliferation of primary HCFs [1]: Dose-dependent inhibitory effects
- proliferation of the cardiomyocyte cell line HL-1 [2]: no impact
- cell death in primary HCFs (Annexin-7AAD-staining) (primary HCFs): does not induce cell death
- E to A peak ratio (E/A) [3]: increase
- Myocardial Performance Index (MPI) [3]: decrease
- isovolumetric relaxation time (IVRT) [3]: reduction

Compound: C[C@]12CC[C@H](O)C[C@H]1CC[C@@H]1[C@@H]2CC[C@]2(C)[C@@H](C3=CC(=O)OC3)[C@@H](O)C[C@]12O [Gitoxigenin]
- proliferation of primary HCFs [1]: Dose-dependent inhibitory effects
- proliferation of the cardiomyocyte cell line HL-1 [2]: no impact
- cell death in primary HCFs (Annexin-7AAD-staining) (primary HCFs): does not induce cell death
- E to A peak ratio (E/A) [3]: increase
- Myocardial Performance Index (MPI) [3]: decrease
- isovolumetric relaxation time (IVRT) [3]: reduction

Compound: C[C@]12CC[C@H](O)C[C@H]1CC[C@@H]1[C@@H]2CC[C@]2(C)[C@@H](c3ccc(=O)oc3)CC[C@]12O [Bufalin]
- proliferation of HCFs (derivative screen) [1]: proliferation is prevented
- proliferation of primary HCFs [1]: Dose-dependent inhibitory effects
- proliferation of the cardiomyocyte cell line HL-1 [2]: no impact
- cell death in primary HCFs (Annexin-7AAD-staining) (primary HCFs): does not induce cell death
- E to A peak ratio (E/A) [3]: increase
- Myocardial Performance Index (MPI) [3]: decrease
- isovolumetric relaxation time (IVRT) [3]: reduction

Reference: US11185539B2 (priority 2017, dated 2021)
